# Source: ChEMBL document CHEMBL5357027, “Annonaceous Acetogenins Synergistically Inhibit Hepatocellular Carcinoma with Sorafenib” (J Nat Prod, 2024)
# Active and inactive are the calls of the source. The calls are words filed in the database; no cut-off is given here.
# How the values were obtained:
# HepG2 [1] = assay: Cytotoxicity against human HepG2 cells assessed as cell growth inhibition incubated for 48 hrs by MTT assay; type: functional, cell-based; conditions: HepG2, 48 h
# Huh-7 [2] = assay: Cytotoxicity against human Huh-7 cells assessed as cell growth inhibition incubated for 48 hrs by MTT assay; type: functional, cell-based; conditions: Huh-7, 48 h
# MHCC97H [3] = assay: Cytotoxicity against human MHCC97H cells assessed as cell growth inhibition incubated for 48 hrs by MTT assay; type: functional, cell-based
# HCCLM3 [4] = assay: Cytotoxicity against human HCCLM3 cells assessed as cell growth inhibition incubated for 48 hrs by MTT assay; type: functional, cell-based; conditions: HCCLM3, 48 h
# HCCLM3 [5] = assay: Inhibition of mitochondrial respiratory chain complex I in human HCCLM3 incubated for 24 hrs; type: cell-based
# HepG2 [6] = assay: Synergistic inhibition of mitochondrial function in human HepG2 cells assessed as reduction in intracellular ATP level at 8 uM incubated for 48 hrs in presence of 16 uM sorafenib; type: functional, cell-based
# Huh-7 [7] = assay: Synergistic inhibition of mitochondrial function in human Huh-7 cells assessed as reduction in intracellular ATP level at 8 uM incubated for 48 hrs in presence of 16 uM sorafenib; type: functional, cell-based
# MHCC97H [8] = assay: Synergistic inhibition of mitochondrial function in human MHCC97H cells assessed as reduction in intracellular ATP level at 8 uM incubated for 48 hrs in presence of 16 uM sorafenib; type: functional, cell-based
# HCCLM3 [9] = assay: Synergistic inhibition of mitochondrial function in human HCCLM3 cells assessed as reduction in intracellular ATP level at 8 uM incubated for 48 hrs in presence of 16 uM sorafenib; type: functional, cell-based
# HCCLM3 [10] = assay: Induction of apoptosis in human HCCLM3 cells assessed as necrotic cells at 4 uM incubated for 48 hrs by Annexin V/FITC-PI staining based flow cytometry (reference value: 3.33%); type: functional
# HCCLM3 [11] = assay: Induction of apoptosis in human HCCLM3 cells assessed as late apoptotic cells at 4 uM incubated for 48 hrs by Annexin V/FITC-PI staining based flow cytometry (reference value: 0.07%); type: functional
# HCCLM3 [12] = assay: Induction of apoptosis in human HCCLM3 cells assessed as early apoptotic cells at 4 uM incubated for 48 hrs by Annexin V/FITC-PI staining based flow cytometry (reference value: 0.05%); type: functional
# HCCLM3 [13] = assay: Induction of apoptosis in human HCCLM3 cells assessed as viable cells at 4 uM incubated for 48 hrs by Annexin V/FITC-PI staining based flow cytometry (reference value: 96.55%); type: functional; conditions: read-out: Activity
# HCCLM3 [14] = assay: Induction of apoptosis in human HCCLM3 cells assessed as viable cells at 4 uM incubated for 48 hrs in presence of 4uM sorafenib by Annexin V/FITC-PI staining based flow cytometry (reference value: 96.55%); type: functional; conditions: read-out: Activity
# HCCLM3 [15] = assay: Induction of apoptosis in human HCCLM3 cells assessed as early apoptotic cells at 4 uM incubated for 48 hrs in presence of 4uM sorafenib by Annexin V/FITC-PI staining based flow cytometry (reference value: 0.05%); type: functional
# HCCLM3 [16] = assay: Induction of apoptosis in human HCCLM3 cells assessed as late apoptotic cells at 4 uM incubated for 48 hrs in presence of 4uM sorafenib by Annexin V/FITC-PI staining based flow cytometry (reference value: 0.07%); type: functional
# HCCLM3 [17] = assay: Induction of apoptosis in human HCCLM3 cells assessed as necrotic cells at 4 uM incubated for 48 hrs in presence of 4uM sorafenib by Annexin V/FITC-PI staining based flow cytometry (reference value: 3.33%); type: functional
# HCCLM3 [18] = assay: Induction of apoptosis in human HCCLM3 cells assessed as apoptotic ratio at 4 uM incubated for 48 hrs in presence of 4uM sorafenib by Annexin V/FITC-PI staining based flow cytometry relative to control; type: functional
# HCCLM3 [19] = assay: Antitumor activity against human HCCLM3 cells xenografted in nude mouse assessed as decrease in tumor volume at 4 to 8 mg/kg, PO measured every other day for 21 days; type: functional, organism-based; conditions: dose 4-8 mg/kg, time 21.0 day
# HCCLM3 [20] = assay: Synergistic antitumor activity against human HCCLM3 cells xenografted in nude mouse assessed as decrease in tumor volume at 4 to 8 mg/kg, PO in presence of 32 mg/kg sorafenib measured every other day for 21 days; type: functional, organism-based; conditions: dose 4-8 mg/kg, time 21.0 day
# HCCLM3 [21] = assay: Synergistic antitumor activity against human HCCLM3 cells xenografted in nude mouse assessed as decrease in tumor weight at 4 to 8 mg/kg, PO in presence of 32 mg/kg sorafenib measured every other day for 21 days; type: functional, organism-based; conditions: dose 4-8 mg/kg, time 21.0 day
# HCCLM3 [22] = assay: Synergistic antitumor activity against human HCCLM3 cells xenografted in nude mouse assessed as induction of aPOptosis in tumor at 4 to 8 mg/kg, PO in presence of 32 mg/kg sorafenib and measured for 21 days by tunel staining based immunohistochemical analysis; type: functional, organism-based; conditions: dose 4-8 mg/kg, time 21.0 day
# HepG2 [23] = assay: Inhibition of mitochondrial function in human HepG2 cells assessed as reduction in ATP production at 8 uM incubated for 48 hrs; type: functional, cell-based
# Huh-7 [24] = assay: Inhibition of mitochondrial function in human Huh-7 cells assessed as reduction in ATP production at 8 uM incubated for 48 hrs; type: functional, cell-based
# MHCC97H [25] = assay: Inhibition of mitochondrial function in human MHCC97H cells assessed as reduction in ATP production at 8 uM incubated for 48 hrs; type: functional, cell-based
# HCCLM3 [26] = assay: Inhibition of mitochondrial function in human HCCLM3 cells assessed as reduction in ATP production at 8 uM incubated for 48 hrs; type: functional, cell-based
# [27] = Toxicity in nude mouse xenografted with human HCCLM3 cells assessed as decrease in body weight at 4 to 8 mg/kg, PO measured every other day for 21 days; type: organism-based; conditions: in vivo, 504 h, dose 4-8 mg/kg, time 21 day
# [28] = Toxicity in nude mouse xenografted with human HCCLM3 cells assessed as decrease in body weight at 1 to 8 mg/kg, PO in presence of sorafenib measured every other day for 21 days; type: organism-based; conditions: in vivo, 504 h, dose 1-8 mg/kg, time 21 day
# [29] = Toxicity in nude mouse xenografted with human HCCLM3 cells assessed as heart damage at 4 to 8 mg/kg, PO measured for 21 days by H and E staining based; type: organism-based; conditions: in vivo, 504 h, dose 4-8 mg/kg, time 21 day
# [30] = Toxicity in nude mouse xenografted with human HCCLM3 cells assessed as liver damage at 4 to 8 mg/kg, PO measured for 21 days by H and E staining based analysis; type: organism-based; conditions: in vivo, 504 h, dose 4-8 mg/kg, time 21 day
# [31] = Toxicity in nude mouse xenografted with human HCCLM3 cells assessed as kidney damage at 4 to 8 mg/kg, PO measured for 21 days by H and E staining based analysis; type: organism-based; conditions: in vivo, 504 h, dose 4-8 mg/kg, time 21 day
# [32] = Toxicity in nude mouse xenografted with human HCCLM3 cells assessed as spleen damage at 4 to 8 mg/kg, PO measured for 21 days by H and E staining based analysis; type: organism-based; conditions: in vivo, 504 h, dose 4-8 mg/kg, time 21 day
# [33] = Toxicity in nude mouse xenografted with human HCCLM3 cells assessed as lung damage at 4 to 8 mg/kg, PO measured for 21 days by H and E staining based analysis; type: organism-based; conditions: in vivo, 504 h, dose 4-8 mg/kg, time 21 day
# [34] = Toxicity in nude mouse xenografted with human HCCLM3 cells assessed as heart damage at 1 to 8 mg/kg, PO in presence of sorafenib measured for 21 days by H and E staining based; type: organism-based; conditions: in vivo, 504 h, dose 1-8 mg/kg, time 21 day
# [35] = Toxicity in nude mouse xenografted with human HCCLM3 cells assessed as liver damage at 1 to 8 mg/kg, PO in presence of sorafenib measured for 21 days by H and E staining based analysis; type: organism-based; conditions: in vivo, 504 h, dose 1-8 mg/kg, time 21 day
# [36] = Toxicity in nude mouse xenografted with human HCCLM3 cells assessed as kidney damage at 1 to 8 mg/kg, PO in presence of sorafenib measured for 21 days by H and E staining based analysis; type: organism-based; conditions: in vivo, 504 h, dose 1-8 mg/kg, time 21 day
# [37] = Toxicity in nude mouse xenografted with human HCCLM3 cells assessed as spleen damage at 1 to 8 mg/kg, PO in presence of sorafenib measured for 21 days by H and E staining based analysis; type: organism-based; conditions: in vivo, 504 h, dose 1-8 mg/kg, time 21 day
# [38] = Toxicity in nude mouse xenografted with human HCCLM3 cells assessed as lung damage at 1 to 8 mg/kg, PO in presence of sorafenib measured for 21 days by H and E staining based analysis; type: organism-based; conditions: in vivo, 504 h, dose 1-8 mg/kg, time 21 day
# HepG2 [39] = assay: Synergistic cytotoxicity against human HepG2 cells assessed as cell growth inhibition by measuring synergy score at 1 to 16 uM incubated for 48 hrs in presence of sorafenib at 1 to 16 uM by MTT assay; type: functional; conditions: dose 1-16 µM
# Huh-7 [40] = assay: Synergistic cytotoxicity against human Huh-7 cells assessed as cell growth inhibition by measuring synergy score at 1 to 16 uM incubated for 48 hrs in presence of sorafenib at 1 to 16 uM by MTT assay; type: functional; conditions: dose 1-16 µM
# MHCC97H [41] = assay: Synergistic cytotoxicity against human MHCC97H cells assessed as cell growth inhibition by measuring synergy score at 1 to 16 uM incubated for 48 hrs in presence of sorafenib at 1 to 16 uM by MTT assay; type: functional; conditions: dose 1-16 µM
# HCCLM3 [42] = assay: Synergistic cytotoxicity against human HCCLM3 cells assessed as cell growth inhibition by measuring synergy score at 1 to 16 uM incubated for 48 hrs in presence of sorafenib at 1 to 16 uM by MTT assay; type: functional; conditions: dose 1-16 µM
smiles,measurement,setting,value
CCCCCCCCCCCC[C@@H](O)[C@H]1CC[C@H]([C@H](O)CCCC[C@@H](O)CCCCC[C@@H](O)CC2=C[C@H](C)OC2=O)O1,IC50,HepG2 [1],7.4 µM
same,IC50,Huh-7 [2],7.4 µM
same,IC50,MHCC97H [3],7.4 µM
same,IC50,HCCLM3 [4],7.4 µM
same,inhibition,HCCLM3 [5],Active
same,inhibition,HepG2 [6],Active
same,inhibition,Huh-7 [7],Active
same,inhibition,MHCC97H [8],Active
same,Activity,HCCLM3 [9],Active
same,Activity,HCCLM3 [10],3.24%
same,Activity,HCCLM3 [11],1.46%
same,Activity,HCCLM3 [12],1.7%
same,viability at 4 µM,HCCLM3 [13],93.6%
same,viability at 4 µM,HCCLM3 [14],73.8%
same,Activity,HCCLM3 [15],17.91%
same,Activity,HCCLM3 [16],3.24%
same,Activity,HCCLM3 [17],5.02%
same,Activity,HCCLM3 [18],18.5%
same,Activity,HCCLM3 [19],Active
same,Activity,HCCLM3 [20],Active
same,Activity,HCCLM3 [21],Active
same,Activity,HCCLM3 [22],Active
same,inhibition,HepG2 [23],Active
same,inhibition,Huh-7 [24],Active
same,inhibition,MHCC97H [25],Active
same,inhibition,HCCLM3 [26],Active
same,Activity,[27],Non-Toxic
same,Activity,[28],Non-Toxic
same,Activity,[29],Non-Toxic
same,Activity,[30],Non-Toxic
same,Activity,[31],Non-Toxic
same,Activity,[32],Non-Toxic
same,Activity,[33],Non-Toxic
same,Activity,[34],Non-Toxic
same,Activity,[35],Non-Toxic
same,Activity,[36],Non-Toxic
same,Activity,[37],Non-Toxic
same,Activity,[38],Non-Toxic
same,Activity,HepG2 [39],4.1
same,Activity,Huh-7 [40],1.6
same,Activity,MHCC97H [41],0.7
same,Activity,HCCLM3 [42],12.1
CCCCCCCCCCCC[C@@H](O)[C@H]1CC[C@H]([C@H](O)CCCC(O)CCCCCC[C@@H](O)CC2=C[C@H](C)OC2=O)O1 (stereo partly specified),IC50,HepG2 [1],10 µM
same,IC50,Huh-7 [2],10 µM
same,IC50,MHCC97H [3],10 µM
same,IC50,HCCLM3 [4],10 µM
same,inhibition,HCCLM3 [5],Active
same,Activity,HepG2 [39],2
same,Activity,Huh-7 [40],2
same,Activity,MHCC97H [41],2
same,Activity,HCCLM3 [42],2
